Assay results published in paper PMC9356275, “A quantitative high-throughput screen identifies compounds that lower expression of the SCA2-and ALS-associated gene ATXN2” (The Journal of Biological Chemistry, 2022).
Structures can show the parent of a compound that is named as a salt. Where two headings read alike, the source gives them in different places.

Experiments:
Type in all cases: cell-based, human
ATXN2-luc [1] = assay: MSSR pilot screen: ATXN2-luc luciferase assay (Bright-Glo) in H2 cells, single 10 μM dose; conditions: for SD from mean (ATXN2-luc, Z-score): H2 cells, single dose (title: 10 μM compound), overnight; for ¦Score/1SD¦: absolute score divided by 1SD (0.891 or 0.9)
ATXN2-luc [2] = assay: MSSR hit retest: ATXN2-luc luciferase assay, average of H2 and S1 cells (1 and 10 uM); conditions: Homo sapiens; for activity at 1 µM: read-out: H2&S1 ave luc 1uM; for activity / activity at 10 µM: read-out: H2&S1 ave luc 10uM; for activity at 10 µM: head line r3 10uM
Text: (§1) Supplement mmc2.xlsx, sheet "43 annotated compounds"

H2 and S1 cells = assay: Paired MTT viability assay, average of H2 and S1 cells (1 and 10 uM); conditions: Homo sapiens
Text: as §1

ATXN2-luc [3] = assay: Secondary assays: ATXN2-luc in S2 and H2 cells, 12 doses, Bright-Glo; conditions: Homo sapiens; H2 and S2 values used as replicates, 24 h; read-out: IC50 for lowering ATXN2-luc
Description: The values for H2 and S2 were used as replicates to calculate IC50s and to assess cell viability.
Compounds were plated at 2× concentrations in phenol red–free DMEM in 25 μl in 384-well plates with each compound dose plated in triplicate. An equal volume of S2, H2, or SC cells (24,000 cells/well) suspended in phenol red–free DMEM with 10% fetal bovine serum and 1× penicillin/streptomycin were added. Cells were grown 24 h and then assayed first by using the CellTiter-Fluor reagent (20 μl) followed by the addition of Bright-Glo (65 μl) luciferase assay, using a multimode plate reader (Beckman; DT880). Values were reported as the mean ± SD with n = 3. IC50s were determined by the Hill coefficient method using an online tool (https://www.aatbio.com/tools/ic50-calculator).

ATXN2-luc [4] = assay: NCATS qHTS (LOPAC pilot, primary and confirmation): ATXN2-luc in S2 cells, 1536-well, Steady-Glo; conditions: LOPAC library screening optimization; for AC50: Homo sapiens
Description: We next performed a pilot screen assay to optimize the 1536-well qHTS using S2 cells. […] Cytotoxicity was determined using a multiplexed viability assay (CellTiter-Fluor, a fluorescence-based viability assay using Gly-Phe-7-amino-4-trifluoromethylcoumarin substrate).
CellTiter-Fluor was used to determine compound effect on cell viability, and Steady-Glo was used to measure luciferase in a multiplexed assay.
The primary assay was conducted at the NCATS NIH Chemical Genomics Center laboratory. About 4 μl of S2 cell suspension in phenol red–free DMEM was dispensed into wells of 1536-well assay plates. […] Next, SteadyGlo luciferase substrate detection reagent (3 μl) was added to each well and incubated for an additional 5 min at room temperature. Luminescence was then measured on the ViewLux imager equipped with clear filters using a 2 s exposure. All screening operations were performed on a fully integrated robotic system (Kalypsys) containing one RX-130 and two RX-90 anthropomorphic robotic arms (Stäubli). Vehicle-only plates, with DMSO being pin-transferred to columns 5 to 48, were inserted uniformly at the beginning and the end of each library in order to monitor and record any shifts in assay performance.

[5] = pilot screen, H2 cells expressing ATXN2-luc, single dose printed as 10 μM compound
[6] = read-out: H2&S1 ave MTT 1uM, 1 uM compound
[7] = read-out: H2&S1 ave MTT 10uM, 10 uM compound
[8] = pilot screen at 10 µM compound, H2 cells expressing ATXN2-luc
[9] = 1 uM compound, average of H2 and S1 cells
[10] = 1 uM compound, read-out: H2&S1 ave MTT 1uM
[11] = 10 uM compound, read-out: H2&S1 ave MTT 10uM

Row | Compound | SD from mean (ATXN2-luc, Z-score) (ATXN2-luc [1]) [SD] | SD from mean (pilot screen) (ATXN2-luc [1]; pilot screen) [SD] | SD from mean (pilot screen) (ATXN2-luc [1]; [5]) | ¦Score/1SD¦ (ATXN2-luc [1]; pilot screen) | activity at 1 µM (ATXN2-luc [2]) [%] | activity (ATXN2-luc [2]) [%] | viability at 1 µM (H2 and S1 cells; [6]) [%] | viability at 10 µM (H2 and S1 cells; [7]) [%] | SD from mean (pilot screen) (ATXN2-luc [1]; [8]) | activity at 1 µM (ATXN2-luc [2]; [9]) [%] | activity at 10 µM (ATXN2-luc [2]; average of H2 and S1 cells) [%] | viability at 1 µM (H2 and S1 cells; [10]) [%] | viability at 10 µM (H2 and S1 cells; [11]) [%] | IC50 (ATXN2-luc [3]) [nM] | AC50 (ATXN2-luc [4]; logarithm of AC50 (negative values), read-out: Log AC50 (converted)) [nM] | AC50 (ATXN2-luc [4]; read-out: AC50) [nM] | Efficacy (ATXN2-luc [4]; curve-fit parameter) | Inf Activity (ATXN2-luc [4]; curve-fit parameter)
1 | C[C@]12CC[C@H](O)C[C@H]1CC[C@@H]1[C@@H]2[C@H](O)C[C@]2(C)[C@@H](C3=CC(=O)OC3)CC[C@]12O [SARMENTOGENIN] | -3.539 | -3.539 | -3.539 | 3.93 | 53 | 24 | 45.8 | 41.2 |  |  |  |  |  |  |  |  |  | 
2 | C[C@H]1O[C@@H](O[C@H]2[C@@H](O)C[C@H](O[C@H]3[C@@H](O)C[C@H](O[C@H]4CC[C@@]5(C)[C@H](CC[C@@H]6[C@@H]5CC[C@]5(C)[C@@H](C7=CC(=O)OC7)CC[C@]65O)C4)O[C@@H]3C)O[C@@H]2C)C[C@H](O)[C@@H]1O [DIGITOXIN] | -4.100 | -4.100 |  | 4.56 | 27 | 19 | 34.3 | 49.1 | -4.100 |  |  |  |  |  |  |  |  | 
3 | C[C@@H]1O[C@@H](O[C@H]2CC[C@]3(C=O)[C@H]4CC[C@]5(C)[C@@H](C6=CC(=O)OC6)CC[C@]5(O)[C@@H]4CC[C@]3(O)C2)[C@H](O)[C@H](O)[C@H]1O [CONVALLATOXIN] | -3.689 | -3.689 |  | 4.10 |  |  |  |  | -3.689 | 12 | 11 | 62.2 | 70 |  |  |  |  | 
4 | COC(=O)C1=C(C)NC(C)=C(C(=O)OCCN(C)Cc2ccccc2)C1c1cccc([N+](=O)[O-])c1 (stereo not shown) [NICARDIPINE] | -2.782 | -2.782 | -2.782 | 3.12 |  |  |  |  |  | 112 | 61 | 140 | 87 |  |  |  |  | 
5 | CC[C@H]1CN2CCc3cc(OC)c(OC)cc3[C@@H]2C[C@@H]1C[C@H]1NCCc2cc(OC)c(OC)cc21 [Emetine dihydrochloride] | -4.840 | -4.840 |  | 5.43 |  |  |  |  | -4.840 | 18 | 19 | 59.7 | 58.1 |  |  |  |  | 
6 | C[C@H]1O[C@@H](O[C@H]2[C@@H](O)C[C@H](O[C@H]3[C@@H](O)C[C@H](O[C@H]4CC[C@@]5(C)[C@H](CC[C@@H]6[C@@H]5CC[C@]5(C)[C@@H](C7=CC(=O)OC7)[C@@H](O)C[C@]65O)C4)O[C@@H]3C)O[C@@H]2C)C[C@H](O)[C@@H]1O [GITOXIN] | -4.086 | -4.086 |  | 4.54 |  |  |  |  | -4.086 | 21 | 12 | 28.7 | 40.3 |  |  |  |  | 
7 | CC(=O)Oc1cccc(O)c1 [RESORCINOL MONOACETATE] | -6.242 | -6.242 |  | 6.94 |  |  |  |  | -6.242 | 120 | 4.6 | 115 | 19.9 |  |  |  |  | 
8 | C[n+]1cc2c3c(ccc2c2ccc4cc5c(cc4c21)OCO5)OCO3 [Sanguinarine] | -2.689 | -2.689 | -2.689 | 3.02 | 127 | 160 | 103 | 114 |  |  |  |  |  |  |  |  |  | 
9 | C[C@]12CC[C@H](O)C[C@H]1CC[C@@H]1[C@@H]2CC[C@]2(C)[C@@H](C3=CC(=O)OC3)CC[C@]12O [Digitoxigenin] | -3.629 | -3.629 |  | 4.07 |  |  |  |  | -3.629 | 38 | 13 | 81.6 | 74.8 |  |  |  |  | 
10 | CC(C)c1cc(-c2n[nH]c(=O)n2-c2ccc3c(ccn3C)c2)c(O)cc1O [ganetespib] |  |  |  |  |  |  |  |  |  |  |  |  |  | 30 |  |  |  | 
11 | C[C@]12CC[C@H](O)C[C@H]1CC[C@@H]1[C@@H]2C[C@@H](O)[C@]2(C)[C@@H](C3=CC(=O)OC3)CC[C@]12O [Digoxigenin] | -3.264 | -3.264 | -3.264 | 3.66 |  |  |  |  |  | 90 | 22 | 60.4 | 31.6 |  |  |  |  | 
12 | CC(C)=CCc1c(O)cc2occ(-c3ccc4c(c3)OCO4)c(=O)c2c1O [DERRUBONE] | -3.621 | -3.621 |  | 4.02 |  |  |  |  | -3.621 | 11 | 15 | 107 | 101 |  |  |  |  | 
13 | C[C@@H]1O[C@@H](O[C@H]2C[C@@H](O)[C@]3(CO)[C@@H]4[C@@H](O)C[C@]5(C)[C@H](C6=CC(=O)OC6)CC[C@@]5(O)[C@H]4CC[C@@]3(O)C2)[C@H](O)[C@H](O)[C@@H]1O.O.O.O.O.O.O.O.O [Strophantine octahydrate] | -3.624 |  |  |  |  |  |  |  |  |  |  |  |  |  | 89.1 | 89.1 | -95.9071 | -89.7119
14 | CO[C@H]1C[C@H](O[C@H]2CC[C@]3(C)[C@H]4CC[C@]5(C)[C@@H](C6=CC(=O)OC6)CC[C@]5(O)[C@@H]4CC[C@]3(O)C2)O[C@H](C)[C@H]1O [PERIPLOCYMARIN] | -2.759 | -2.759 | -2.759 | 3.07 | 75 | 17 | 58.7 | 37.1 |  |  |  |  |  |  |  |  |  | 
15 | CO[C@H]1C[C@H](O[C@H]2CC[C@]3(C=O)[C@H]4CC[C@]5(C)[C@@H](C6=CC(=O)OC6)CC[C@]5(O)[C@@H]4CC[C@]3(O)C2)O[C@H](C)[C@H]1O [CYMARIN] | -4.099 | -4.099 |  | 4.55 | 14 | 16 | 54.2 | 59.3 | -4.099 |  |  |  |  |  |  |  |  | 
16 | CO[C@H]1[C@H](O)[C@H](O[C@H]2CC[C@@]3(C)[C@H](CC[C@@H]4[C@@H]3CC[C@]3(C)[C@@H](C5=CC(=O)OC5)CC[C@]43O)C2)O[C@@H](C)[C@@H]1O [NERIIFOLIN] | -3.045 | -3.045 | -3.045 | 3.38 | 17 | 17 | 30.8 | 36.1 |  |  |  |  |  |  |  |  |  | 
17 | CC(=O)O[C@H]1CC[C@@]2(C)[C@H](CC[C@@H]3[C@@H]2CC[C@]2(C)[C@@H](C4=CC(=O)OC4)[C@@H](OC(C)=O)C[C@]32O)C1 [GITOXIGENIN DIACETATE] | -4.261 | -4.261 |  | 4.73 | 27 | 21 | 39.7 | 40.3 | -4.261 |  |  |  |  |  |  |  |  | 
18 | C[C@]12CC[C@H]3[C@@H](CC[C@]4(O)C[C@@H](O)CC[C@]34C=O)[C@@]1(O)CC[C@@H]2C1=CC(=O)OC1 [STROPHANTHIDIN] |  | -4.451 |  | 4.95 | 16 | 15 | 40.1 | 45.5 | -4.451 |  |  |  |  |  |  |  |  | 
